Data published in US20230309554A1, “Polymer Carriers for Delivery of Agrochemicals in Crop Plants” (Carnegie Mellon University, priority 2020, published 2023).

Legend:
tomato leaves = settings: in vivo
Method: Tracer loading into star polymers. To load CV into star polymers, 10 mg of star polymer was dissolved into 5 mL of Milli Q water with pH adjusted to 7.5 by adding aliquots of 0.1M HCl and 0.1 M NaOH. 2 mg of CV was added into the star polymer solution and the mixture was vortex mixed for 24 h. The resulting solution was dialyzed against 2 L of Milli Q water for 2 cycles to remove free CV. After dialysis, the sample volume was adjusted to 20 mL to get a 0.5 g L^−1 CV loaded star polymer solution. Spreading agent Silwet L-77 was added into the star polymer solution at 0.1% (v/v) before foliar application. 20 μL of the CV loaded star polymer was applied onto tomato leaves by drop deposition.
This enhanced resolution dark-field microscope system (BX51, Olympus, USA) was equipped with a 150 W halogen light source (Fiber-Lite, Dolan-Jenner, USA) and a hyperspectral camera (CytoViva hyperspectral imaging system 1.4). […] Hyperspectral images were acquired using 100% light source intensity and 0.1 to 0.25 s acquisition per line and corrected for the lamp contribution. […]
RSP uptake and distribution in tomato leaves. RSP interactions with the plant leaf after foliar application was assessed by dark field hyperspectral imaging (DF-HSI) of crystal violet (CV) loaded RSP in tomato leaves. […]

tomato plants = assay: Leaf carbon assimilation and chlorophyll fluorescence under combined heat and excess light stress; type: in vivo, Solanum lycopersicum; settings: after heat and light stress 1.5 h
Method: Plant growth. […] The sterilized seeds were germinated in petri-dish on water-soaked filter paper under dark for 10 days. Afterwards, the seedlings were transplanted to 100 mL plastic cups. Each seedling was grown hydroponically using 1⁄4 strength Hoagland's solution aerated using air pumps. […] Leaf carbon assimilation rate and chlorophyll fluorescence. Plant leaf carbon assimilation and chlorophyll fluorescence was measured by a Li-Cor Li-6800 portable photosynthesis system. […] Combined heat and excess light stress. The carbon (A-Ci) and light response (A-PAR) curves of treated leaves were measured before stress conditions. […] The carbon and light response curves were measured again and compared with the curve acquired before stress. […] Light adapted ([…]) chlorophyll fluorescent test were also performed before and after stress conditions. The A-Ci curves were analyzed according to previously reported model for C3 plants: […]

Structure (SMILES) | Location in tomato leaf (tomato leaves) | Photosynthesis enhancement compared to control leaves (tomato plants)
CN(C)c1ccc(C(=C2C=CC(=[N+](C)C)C=C2)c2ccc(N(C)C)cc2)cc1 [CV, crystal violet] | primarily found on the leaf epidermis, with a limited amount inside the mesophyll | 
[Cl-].[Cl-].[Mg+2] [Mg^2+] |  | No significant photosynthesis enhancement
